Results taken from patent US20230258569A1, “REAGENT FOR MEASURING SKIN SENSITIZATION, COMPOUND, AND METHOD FOR MEASURING SKIN SENSITIZATION” (FUJIFILM Corporation, priority 2020, published 2023).
Where a name gives a salt, the structure may show the parent alone.

Legend:
[1] = prediction results published in the literature; cited from earlier work
[2] = in vivo; cited from earlier work
[3] = Reactivity (% depletion) of nucleophilic reagent Compound 1 with test substance, HPLC; skin sensitization prediction; conditions: for reactivity of Compound 1 in comparison with NAC and NAL in ADRA / reactivity of Compound 1 in comparison with NAC-amide / reactivity of Compound 1 in comparison with the cysteine peptide and the lysine peptide in DPRA / reactivity of Compound 1 in comparison with GSH-NBD: FIG. 3, FIG. 4; for reactivity of Compound 1 with the substance: in words
[4] = Stability of nucleophilic reagent (residual ratio, HPLC-UV); assay type: physicochemical
Method: Immediately after preparation of the reaction solution (0 hours) and after incubation of the reaction solution at 25° C. for 24 hours (24 hours), the reaction solution is measured by HPLC-UV. At this time, since the nucleophilic reagent and the oxidized form and modified form of the nucleophilic reagent can be confirmed on HPLC, the residual ratio of the nucleophilic reagent is calculated based on the following equation.
Residual ratio (%) of nucleophilic reagent=area value of nucleophilic reagent/(area value of nucleophilic reagent+area value of oxidized form of nucleophilic reagent+area value of modified form of nucleophilic reagent)×100

[5] = DPRA (direct peptide reactivity assay); conditions: in words
Text: For example, [Gerberick, G. F., Vassallo, J. D., Bailey, R. E., Chaney, J. G., Morrall, S. W., and Lepoittevin, J. P. (2004). Development of a peptide reactivity assay for screening contact allergens. Toxicological Sciences, 81 (2), pp. 332-343] and [Gerberick, G. F., Vassallo, J. D., Foertsch, L. M., Price, B. B., Chaney, J. G., and Lepoittevin, J. P. (2007). Quantification of chemical peptide reactivity for screening contact allergens: a classification tree model approach. Toxicological Sciences, 97 (2), pp. 417-427] describe a method using two types of peptides (a cysteine peptide and a lysine peptide) as nucleophilic reagents. In addition, JP2011-59102A and JP2014-37995A describe a reagent for measuring skin sensitization and a method for measuring skin sensitization, using a cysteine derivative into which an aryl ring has been introduced and a lysine derivative into which an aryl ring has been introduced as nucleophilic reagents (also referred to as ADRA).
Natsch A. and Gfeller H. (2008). […] Quantification of chemical peptide reactivity for screening contact allergens: a classification tree model approach. […]
One type of nucleophilic reagent (Compound 1) was evaluated. In addition, the following compounds were also evaluated in the same manner as controls for comparison of the reactivity to the fifteen types of evaluation substances. • Cys peptide • Lys peptide

[6] = prediction results published in the literature; cited from earlier work; remark: listed apart in the source

O=c1cccccc1O [Tropolone]
DPRA prediction [1]: Positive
Category of LLNA sensitization [2]: Moderate
reactivity of Compound 1 in comparison with NAC and NAL in ADRA [3]: higher reactivity
reactivity of Compound 1 in comparison with NAC-amide [3]: same level of reactivity
reactivity of Compound 1 in comparison with the cysteine peptide and the lysine peptide in DPRA [3]: lower reactivity

CCC=C1OC(=O)c2ccccc21 [3-Propylidene phthalide]
DPRA prediction [1]: Positive
Category of LLNA sensitization [2]: Moderate
reactivity of Compound 1 in comparison with NAC and NAL in ADRA [3]: same level of reactivity
reactivity of Compound 1 in comparison with NAC-amide [3]: same level of reactivity
reactivity of Compound 1 in comparison with the cysteine peptide and the lysine peptide in DPRA [3]: lower reactivity

CCCCCC(C=O)=Cc1ccccc1 [α-Pentyl cinnamaldehyde]
Category of LLNA sensitization [2]: Weak
reactivity of Compound 1 in comparison with GSH-NBD [3]: higher reactivity
reactivity of Compound 1 in comparison with NAC and NAL in ADRA [3]: higher reactivity
reactivity of Compound 1 in comparison with NAC-amide [3]: higher reactivity
reactivity of Compound 1 in comparison with the cysteine peptide and the lysine peptide in DPRA [3]: higher reactivity

NNC(=O)[C@H](CS)NC(=O)Cc1cccc2ccccc12 [Compound 1]
residual ratio of nucleophilic reagent ([4]; after 24 hours, 25° C.): ≥ 85%
residual ratio of nucleophilic reagent ([4]; immediately after solution preparation (0 hours)): ≥ 90%

CCCCBr [1-Bromobutane]
reactivity with the cysteine peptide in DPRA [5]: reactive
ADRA prediction [6]: Negative
reactivity of Compound 1 in comparison with NAC and NAL in ADRA [3]: same level of reactivity
reactivity of Compound 1 in comparison with NAC-amide [3]: same level of reactivity
reactivity of Compound 1 with the substance [3]: no reactivity

CCCCCCI [Compound 1-Iodohexane, 1-Iodohexane]
reactivity with the cysteine peptide in DPRA [5]: reactive
ADRA prediction [6]: Negative
Category of LLNA sensitization [2]: None
reactivity of Compound 1 in comparison with NAC and NAL in ADRA [3]: same level of reactivity
reactivity of Compound 1 in comparison with NAC-amide [3]: same level of reactivity
reactivity of Compound 1 with the substance [3]: no reactivity

COC(=O)C(C)=O [Methyl pyruvate]
Category of LLNA sensitization [2]: Moderate
reactivity of Compound 1 in comparison with GSH-NBD [3]: higher reactivity
reactivity of Compound 1 in comparison with NAC and NAL in ADRA [3]: higher reactivity
reactivity of Compound 1 in comparison with NAC-amide [3]: higher reactivity
reactivity of Compound 1 in comparison with the cysteine peptide and the lysine peptide in DPRA [3]: higher reactivity

O=C(O)c1ccc2c(c1)C(=O)OC2=O [Trimellitic anhydride]
ADRA prediction [6]: Positive
DPRA prediction [1]: Positive
Category of LLNA sensitization [2]: Strong
reactivity of Compound 1 in comparison with GSH-NBD [3]: GSH-NBD showed higher reactivity
reactivity of Compound 1 in comparison with NAC and NAL in ADRA [3]: NAL showed higher reactivity than Compound 1
reactivity of Compound 1 in comparison with NAC-amide [3]: higher reactivity
reactivity of Compound 1 in comparison with the cysteine peptide and the lysine peptide in DPRA [3]: same level of reactivity
depletion of Compound 1 ([3]; pH 7.4): 41.0%
depletion of Compound 1 ([3]; pH 8.0): 37.2%

CCOC(=O)CC(=O)c1ccccc1 [Ethyl benzoylacetate]
ADRA prediction [6]: Negative
DPRA prediction [1]: Negative
Category of LLNA sensitization [2]: None
reactivity of Compound 1 in comparison with NAC and NAL in ADRA [3]: same level of reactivity
reactivity of Compound 1 in comparison with NAC-amide [3]: same level of reactivity
reactivity of Compound 1 in comparison with the cysteine peptide and the lysine peptide in DPRA [3]: same level of reactivity

O=c1c(-c2ccccc2)c1-c1ccccc1 [Diphenylcyclopropenone]
ADRA prediction [6]: Positive
DPRA prediction [1]: Positive
reactivity of Compound 1 in comparison with NAC and NAL in ADRA [3]: higher reactivity
reactivity of Compound 1 in comparison with NAC-amide [3]: same level of reactivity
reactivity of Compound 1 in comparison with the cysteine peptide and the lysine peptide in DPRA [3]: same level of reactivity

O=C(Oc1ccccc1)c1ccccc1 [Phenyl benzoate]
DPRA prediction [1]: Positive
Category of LLNA sensitization [2]: Weak
reactivity of Compound 1 in comparison with NAC and NAL in ADRA [3]: higher reactivity
reactivity of Compound 1 in comparison with NAC-amide [3]: same level of reactivity
reactivity of Compound 1 in comparison with the cysteine peptide and the lysine peptide in DPRA [3]: lower reactivity

COc1ccc(C(C)=O)cc1 [4′-Methoxyacetophenone]
ADRA prediction [6]: Negative
DPRA prediction [1]: Negative
Category of LLNA sensitization [2]: None
reactivity of Compound 1 in comparison with NAC and NAL in ADRA [3]: same level of reactivity
reactivity of Compound 1 in comparison with NAC-amide [3]: same level of reactivity
reactivity of Compound 1 in comparison with the cysteine peptide and the lysine peptide in DPRA [3]: same level of reactivity

CC(C=O)Cc1ccc(C(C)C)cc1 (centres unmarked) [Cyclamen aldehyde]
DPRA prediction [1]: Positive
Category of LLNA sensitization [2]: Weak
reactivity of Compound 1 in comparison with GSH-NBD [3]: higher reactivity
reactivity of Compound 1 in comparison with NAC and NAL in ADRA [3]: higher reactivity
reactivity of Compound 1 in comparison with NAC-amide [3]: higher reactivity
reactivity of Compound 1 in comparison with the cysteine peptide and the lysine peptide in DPRA [3]: higher reactivity

CCCCCCCCC(=O)Cl [Nonanoyl chloride]
ADRA prediction [6]: Positive
Category of LLNA sensitization [2]: Moderate
reactivity of Compound 1 in comparison with GSH-NBD [3]: GSH-NBD showed higher reactivity
reactivity of Compound 1 in comparison with NAC and NAL in ADRA [3]: higher reactivity
reactivity of Compound 1 in comparison with NAC-amide [3]: same level of reactivity
reactivity of Compound 1 in comparison with the cysteine peptide and the lysine peptide in DPRA [3]: higher reactivity

CCOS(=O)(=O)OCC [Diethyl sulfate]
DPRA prediction [1]: Positive
